# Experimental data from PubChem BioAssay (NCI).
#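 In this assay, cells in 96-well plates receive the compound at five concentrations for 48 hours. Endpoints are linearly interpolated between the surrounding concentrations. At the TGI there is no net growth.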
# Tests used:
# Assay in all cases: NCI-60 cell line screen, 48 h
# KM12 colon = test system: KM12 colon
# RXF 393 renal = test system: RXF 393 renal
# IGROV1 ovarian = test system: IGROV1 ovarian
# HL-60(TB) leukemia = test system: HL-60(TB) leukemia
# SW-620 colon = test system: SW-620 colon
# M14 melanoma = test system: M14 melanoma
# DU-145 prostate = test system: DU-145 prostate
# COLO 205 colon = test system: COLO 205 colon
# EKVX NSCLC = test system: EKVX NSCLC
# HOP-92 NSCLC = test system: HOP-92 NSCLC
# SF-268 CNS = test system: SF-268 CNS
# BT-549 breast = test system: BT-549 breast
# OVCAR-8 ovarian = test system: OVCAR-8 ovarian
# ACHN renal = test system: ACHN renal
# SN12C renal = test system: SN12C renal
# HCC-2998 colon = test system: HCC-2998 colon
# SK-OV-3 ovarian = test system: SK-OV-3 ovarian
# TK-10 renal = test system: TK-10 renal
# RPMI-8226 leukemia = test system: RPMI-8226 leukemia
SMILES,TGI (KM12 colon) [µM],TGI (RXF 393 renal) [µM],TGI (IGROV1 ovarian) [µM],TGI (HL-60(TB) leukemia) [µM],TGI (SW-620 colon) [µM],TGI (M14 melanoma) [µM],TGI (DU-145 prostate) [µM],TGI (COLO 205 colon) [µM],TGI (EKVX NSCLC) [µM],TGI (HOP-92 NSCLC) [µM],TGI (SF-268 CNS) [µM],TGI (BT-549 breast) [µM],TGI (OVCAR-8 ovarian) [µM],TGI (ACHN renal) [µM],TGI (SN12C renal) [µM],TGI (HCC-2998 colon) [µM],TGI (SK-OV-3 ovarian) [µM],TGI (TK-10 renal) [µM],TGI (RPMI-8226 leukemia) [µM]
Cc1cn(C2CC(N=[N+]=[N-])C(C(=O)O)O2)c(=O)[nH]c1=O (centres undefined),> 100,> 100,> 100,> 100,> 100,> 100,> 100,> 100,> 100,> 100,> 100,> 100,> 100,> 100,> 100,> 100,> 100,> 100,> 100
CC(=O)O[C@H]1CC[C@@]2(C)C(=CC[C@H]3[C@@H]4C/C(=C\c5ccncc5)[C@H](OC(C)=O)[C@@]4(C)CC[C@@H]32)C1,16.3,9.86,27.7,16.7,17.2,30.2,29.4,18.2,36.3,19.7,25.8,10.9,34.5,33.6,33,26.3,44.1,47.9,7.6
O=C1CCCCCCCCCCC1CN(Cc1ccccc1)Cc1ccccc1 (centres undefined),> 100,70.2,> 100,76.4,> 100,> 100,> 100,> 100,> 100,> 100,> 100,> 100,> 100,> 100,> 100,85.8,> 100,> 100,> 100
Cc1cccc(Nc2nc(NNC(=O)Cc3ccccc3)nc(NNC(=O)c3ccncc3)n2)c1,> 10,> 10,> 10,> 10,> 10,> 10,> 10,> 10,> 10,> 10,> 10,> 10,> 10,> 10,> 10,> 10,> 10,> 10,> 10
Cc1n(-c2ccccc2)c2c([n+]1Cc1ccc([N+](=O)[O-])cc1)C(=O)c1ccccc1C2=O,6.54,21.5,2.23,1.35,6.63,7,3.28,3.07,5.7,4.3,3.71,3.18,6.43,13.9,3.08,4.2,12.5,19.3,3.82
Nc1ccc(-c2nc3ccccc3s2)cc1I,> 100,> 100,> 100,> 100,> 100,> 100,> 100,> 100,> 100,> 54.5,> 100,> 100,> 100,> 100,> 100,> 100,> 100,> 100,> 100
